For 31 compounds, IC50 results are on record in US9776995B2, “Bicyclic sulfonamide compounds as sodium channel inhibitors” (AMGEN INC., priority 2013, dated 2017).

For the first experiment, the target named is T1, Nav 1.7 (Homo sapiens (Human), UniProt Q15858). The experiment can be described thus: in-vitro Nav 1.7 PX data. The experiment is classed as cell-based. The note with it: in-vitro Nav 1.7 PX data.
T1 sequence (Q15858 whole entry): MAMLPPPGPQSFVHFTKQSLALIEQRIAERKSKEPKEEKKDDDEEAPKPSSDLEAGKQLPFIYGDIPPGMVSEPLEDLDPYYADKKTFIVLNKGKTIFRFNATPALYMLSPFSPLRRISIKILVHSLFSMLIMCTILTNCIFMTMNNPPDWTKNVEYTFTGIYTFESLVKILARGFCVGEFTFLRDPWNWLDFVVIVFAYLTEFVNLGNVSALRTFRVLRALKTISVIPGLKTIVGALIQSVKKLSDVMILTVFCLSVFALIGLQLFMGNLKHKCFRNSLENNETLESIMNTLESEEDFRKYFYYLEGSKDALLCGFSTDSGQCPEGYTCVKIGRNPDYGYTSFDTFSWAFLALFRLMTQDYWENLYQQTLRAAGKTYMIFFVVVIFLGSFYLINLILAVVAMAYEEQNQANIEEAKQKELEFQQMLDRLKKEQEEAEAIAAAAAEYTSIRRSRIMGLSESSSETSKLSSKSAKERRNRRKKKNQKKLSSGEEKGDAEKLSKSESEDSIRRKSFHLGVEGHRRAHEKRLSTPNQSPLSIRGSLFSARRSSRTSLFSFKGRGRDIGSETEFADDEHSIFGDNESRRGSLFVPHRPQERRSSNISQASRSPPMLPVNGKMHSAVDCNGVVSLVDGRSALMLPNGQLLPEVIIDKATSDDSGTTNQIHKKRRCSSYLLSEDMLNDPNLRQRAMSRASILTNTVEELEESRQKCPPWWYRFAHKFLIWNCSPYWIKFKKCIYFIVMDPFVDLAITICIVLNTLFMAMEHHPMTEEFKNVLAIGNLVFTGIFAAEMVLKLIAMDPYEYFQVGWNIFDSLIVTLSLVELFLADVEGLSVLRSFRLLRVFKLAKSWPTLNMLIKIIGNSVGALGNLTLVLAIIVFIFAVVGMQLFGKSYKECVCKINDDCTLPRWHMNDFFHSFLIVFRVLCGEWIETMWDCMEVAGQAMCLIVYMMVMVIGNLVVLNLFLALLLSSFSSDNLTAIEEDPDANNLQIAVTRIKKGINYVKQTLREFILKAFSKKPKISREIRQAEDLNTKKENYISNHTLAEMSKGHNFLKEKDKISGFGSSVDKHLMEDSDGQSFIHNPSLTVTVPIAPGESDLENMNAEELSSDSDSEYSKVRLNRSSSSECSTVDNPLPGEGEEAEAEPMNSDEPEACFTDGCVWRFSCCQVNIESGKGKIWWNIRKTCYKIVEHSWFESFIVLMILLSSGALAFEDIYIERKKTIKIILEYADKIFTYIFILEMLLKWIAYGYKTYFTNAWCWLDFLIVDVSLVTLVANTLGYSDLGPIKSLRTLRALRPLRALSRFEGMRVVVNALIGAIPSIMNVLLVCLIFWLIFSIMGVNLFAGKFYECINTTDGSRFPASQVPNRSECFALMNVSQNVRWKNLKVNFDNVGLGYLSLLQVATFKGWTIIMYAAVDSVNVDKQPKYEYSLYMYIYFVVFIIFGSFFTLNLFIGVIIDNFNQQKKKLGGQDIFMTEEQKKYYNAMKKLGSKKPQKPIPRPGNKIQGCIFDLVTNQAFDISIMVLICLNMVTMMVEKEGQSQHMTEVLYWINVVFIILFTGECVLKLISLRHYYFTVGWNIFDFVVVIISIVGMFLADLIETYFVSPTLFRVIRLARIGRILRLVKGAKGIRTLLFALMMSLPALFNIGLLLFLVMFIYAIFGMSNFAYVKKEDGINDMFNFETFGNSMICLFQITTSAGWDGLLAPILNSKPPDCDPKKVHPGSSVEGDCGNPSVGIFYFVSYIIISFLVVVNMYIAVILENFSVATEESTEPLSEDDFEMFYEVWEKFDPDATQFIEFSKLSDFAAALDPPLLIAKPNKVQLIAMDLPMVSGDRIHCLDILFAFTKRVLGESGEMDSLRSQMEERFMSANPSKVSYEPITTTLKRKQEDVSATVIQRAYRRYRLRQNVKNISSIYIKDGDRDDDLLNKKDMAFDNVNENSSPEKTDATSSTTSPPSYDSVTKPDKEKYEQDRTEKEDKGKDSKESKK
With `COc1cc(-c2cccnc2OC)ccc1-c1nccc2cc(S(=O)(=O)Nc3nncs3)ccc12` [Example 166, 1-(2-methoxy-4-(2-methoxy-3-pyridinyl)phenyl)-N-1,3,4-thiadiazol-2-yl-6-isoquinolinesulfonamide], the midpoint of inhibition, the IC50, lay at 794 nM. `COc1cc(-c2nccc3cc(S(=O)(=O)Nc4ccon4)ccc23)c(C)cc1-c1cccc(F)c1` [Example 167, 1-(3′-fluoro-2-methoxy-5-methyl-4-biphenylyl)-N-3-isoxazolyl-6-isoquinolinesulfonamide] registered an IC50 of 2720 nM. Still for that read-out and setting: to `COc1ccc(F)cc1-c1cc(C)c(-c2ncnc3cc(S(=O)(=O)Nc4ccon4)ccc23)cc1OC` [Example 168, 4-(5′-fluoro-2,2′-dimethoxy-5-methyl-4-biphenylyl)-N-3-isoxazolyl-7-quinazolinesulfonamide] belongs 8540 nM; to `COc1cc(C(F)F)c(Cl)cc1-c1nccc2cc(S(=O)(=O)Nc3ccon3)ccc12` [Example 169, 1-(5-chloro-4-(difluoromethyl)-2-methoxyphenyl)-N-3-isoxazolyl-6-isoquinolinesulfonamide], 104 nM; to `COc1ccc(C)c(-c2cc(C)c(-c3ncnc4cc(S(=O)(=O)Nc5ccon5)ccc34)cc2OC)c1` [Example 173, 4-(2,5′-dimethoxy-2′,5-dimethyl-4-biphenylyl)-N-3-isoxazolyl-7-quinazolinesulfonamide], 3840 nM.

The same experiment, now with this note: in-vitro PX.
In turn, `COc1cc(-c2ccc(Cl)c(C)c2)c(Cl)cc1-c1ncnc2cc(S(=O)(=O)Nc3ccon3)ccc12` [Example 204, 4-(2,4′-dichloro-5-methoxy-3′-methyl-4-biphenylyl)-N-3-isoxazolyl-7-quinazolinesulfonamide] registered an IC50 of 21.8 nM.

Take `COc1cc(-c2cc(F)cc(F)c2)c(Cl)cc1-c1ncnc2cc(S(=O)(=O)Nc3ccon3)ccc12` [Example 206, 4-(2-chloro-3′,5′-difluoro-5-methoxy-4-biphenylyl)-N-3-isoxazolyl-7-quinazolinesulfonamide]: the IC50 was 14.5 nM. The same measure, in the same setting: for `COc1cc(-c2cccc(F)c2)c(Cl)cc1-c1ncnc2cc(S(=O)(=O)Nc3cnsn3)ccc12` [Example 207, 4-(2-chloro-3′-fluoro-5-methoxy-4-biphenylyl)-N-1,2,5-thiadiazol-3-yl-7-quinazolinesulfonamide] the value was 51.5 nM; for `COc1cc(-c2cccc(F)c2)ccc1-c1ccnc2cc(S(=O)(=O)Nc3nncs3)ccc12` [Example 210, 4-(3′-fluoro-3-methoxy-4-biphenylyl)-N-1,3,4-thiadiazol-2-yl-7-quinolinesulfonamide], 1050 nM; for `COc1cc(-c2cccc(F)n2)c(F)cc1-c1nccc2cc(S(=O)(=O)Nc3nncs3)ccc12` [Example 212, 1-(5-fluoro-4-(6-fluoro-2-pyridinyl)-2-methoxyphenyl)-N-1,3,4-thiadiazol-2-yl-6-isoquinolinesulfonamide], 1370 nM. Same read-out and setting: for `COc1cc(-c2ccc(F)c(C)c2)c(Cl)cc1-c1ncnc2cc(S(=O)(=O)Nc3ccon3)ccc12` [Example 213, 4-(2-chloro-4′-fluoro-5-methoxy-3′-methyl-4-biphenylyl)-N-3-isoxazolyl-7-quinazolinesulfonamide] the value was 38.2 nM; for `COc1cc(-c2cc(F)cnc2OC)c(Cl)cc1-c1ncnc2cc(S(=O)(=O)Nc3ccon3)ccc12` [Example 214, 4-(5-chloro-4-(5-fluoro-2-methoxy-3-pyridinyl)-2-methoxyphenyl)-N-3-isoxazolyl-7-quinazolinesulfonamide], 19.8 nM; for `COc1cc(-c2cccc(F)c2)c(Cl)cc1-c1n[nH]c(=O)c2cc(S(=O)(=O)Nc3ccon3)ccc12` [Example 232, 1-(2-chloro-3′-fluoro-5-methoxy-4-biphenylyl)-N-3-isoxazolyl-4-oxo-3,4-dihydro-6-phthalazinesulfonamide], 126 nM. On the same count and under the same terms, for `COc1nc(Cl)c(Cl)cc1-c1nccc2cc(S(=O)(=O)Nc3nncs3)ccc12` [Example 240, 1-(5,6-dichloro-2-methoxy-3-pyridinyl)-N-1,3,4-thiadiazol-2-yl-6-isoquinolinesulfonamide] the value was 1870 nM. Consider `COc1nc(N(C)C)c(Cl)cc1-c1nccc2cc(S(=O)(=O)Nc3nncs3)ccc12` [Example 242, 1-(5-chloro-6-(dimethylamino)-2-methoxy-3-pyridinyl)-N-1,3,4-thiadiazol-2-yl-6-isoquinolinesulfonamide], for which inhibition was half-maximal at 1870 nM (IC50).

The experiment is the same for the next values; noted with them: in-vitro PX (PatchXpress) data.
As for `COc1cc(Oc2cc(F)cc(F)c2)ccc1-c1nccc2cc(S(=O)(=O)Nc3ccncn3)ccc12` [Example 178, 1-(4-(3,5-difluorophenoxy)-2-methoxyphenyl)-N-4-pyrimidinyl-6-isoquinolinesulfonamide], the IC50 stood at 18700 nM. Compound `O=S(=O)(Nc1nncs1)c1ccc2c(-c3ccc(C(F)(F)F)cc3C3CC3)ncnc2c1` [Example 192, 4-(2-cyclopropyl-4-(trifluoromethyl)phenyl)-N-1,3,4-thiadiazol-2-yl-7-quinazolinesulfonamide] gave an IC50 of 4940 nM. `COc1cc(-c2cccnc2OC(F)F)ccc1-c1nccc2cc(S(=O)(=O)Nc3nncs3)ccc12` [Example 193, 1-(4-(2-(difluoromethoxy)-3-pyridinyl)-2-methoxyphenyl)-N-1,3,4-thiadiazol-2-yl-6-isoquinolinesulfonamide] gave an IC50 of 871 nM. Compound `COc1cc(Oc2ccc(F)cn2)ccc1-c1nccc2cc(S(=O)(=O)Nc3ccon3)ccc12` [Example 195, 1-(4-((5-fluoro-2-pyridinyl)oxy)-2-methoxyphenyl)-N-3-isoxazolyl-6-isoquinolinesulfonamide] gave an IC50 of 1610 nM. Compound `COc1ccc(-c2ccc(-c3nccc4cc(S(=O)(=O)Nc5nncs5)ccc34)c(OC)c2)c(F)n1` [Example 196, 1-(4-(2-fluoro-6-methoxy-3-pyridinyl)-2-methoxyphenyl)-N-1,3,4-thiadiazol-2-yl-6-isoquinolinesulfonamide] came in with an IC50 of 1050 nM.

Another experiment addresses T1, Nav 1.7. As to the kind of experiment: Nav 1.7 in vitro PX assay (PatchXpress whole cell voltage clamp).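 Note: holding potential set for 20 to 50% inactivation, sodium current evoked by a 20 ms step to −10 mV, peak current inhibition read after compound exposure, 3–5 cells per concentration.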 Format: cell-based. Particulars: HEK 293 cells stably transfected with human Nav1.7; PatchXpress; partially inactivated state.
`COc1cc(-c2cccc(F)c2)c(Cl)cc1-c1c(C)ncc2cc(S(=O)(=O)Nc3ccon3)ccc12` (atropisomer, axis not shown; (M)) [Example 317, (M)-4-(2-chloro-3′-fluoro-5-methoxy-4-biphenylyl)-N-3-isoxazolyl-3-methyl-7-isoquinolinesulfonamide] yielded an IC50 of 72 nM.

With `COc1cc(-c2cccc(F)c2)c(Cl)cc1-c1c(C)cnc2cc(S(=O)(=O)Nc3ccon3)ccc12` (atropisomer, axis not shown; (M)) [Example 330, (M)-4-(2-chloro-3′-fluoro-5-methoxy-[1,1′-biphenyl]-4-yl)-N-(isoxazol-3-yl)-3-methylquinoline-7-sulfonamide], the midpoint of inhibition, the IC50, lay at 496 nM.

Compound `CCc1cnc2cc(S(=O)(=O)Nc3ccon3)ccc2c1-c1cc(Cl)c(-c2cccc(F)c2)cc1OC` (atropisomer, axis not shown; (M)) [Example 332, (M)-4-(2-chloro-3′-fluoro-5-methoxy-[1,1′-biphenyl]-4-yl)-3-ethyl-N-(isoxazol-3-yl)quinoline-7-sulfonamide] showed an IC50 of 33700 nM.

With `COc1cc(-c2cccc(F)c2)c(Cl)cc1-c1c(C#N)cnc2cc(S(=O)(=O)Nc3ccon3)ccc12` (atropisomer, axis not shown; (M)) [Example 334, (M)-4-(2-chloro-3′-fluoro-5-methoxy-[1,1′-biphenyl]-4-yl)-3-cyano-N-(isoxazol-3-yl)quinoline-7-sulfonamide], 101 nM corresponded to half-maximal inhibition (IC50).

Compound `COc1cc(-c2cccc(F)c2)c(Cl)cc1-c1c(O)cnc2cc(S(=O)(=O)Nc3ccon3)ccc12` (atropisomer, axis not shown; (M)) [Example 337, (M)-4-(2-chloro-3′-fluoro-5-methoxy-[1,1′-biphenyl]-4-yl)-3-hydroxy-N-(isoxazol-3-yl)quinoline-7-sulfonamide] came in with an IC50 of 71 nM. Regarding `COc1cc(-c2cccc(F)c2)c(Cl)cc1-c1c(OC)cnc2cc(S(=O)(=O)Nc3ccon3)ccc12` (atropisomer, axis not shown; (M)) [Example 339, (M)-4-(2-chloro-3′-fluoro-5-methoxy-[1,1′-biphenyl]-4-yl)-N-(isoxazol-3-yl)-3-methoxyquinoline-7-sulfonamide], the 50% inhibitory concentration (IC50) was 630 nM. For `COc1cc(-c2cccc(F)c2)c(Cl)cc1-c1c(C)nnc2cc(S(=O)(=O)Nc3ccon3)ccc12` (atropisomer, axis not shown; (M)) [Example 441, (M)-4-(2-chloro-3′-fluoro-5-methoxy-[1,1′-biphenyl]-4-yl)-N-(isoxazol-3-yl)-3-methylcinnoline-7-sulfonamide], the IC50 is 52 nM. Same read-out and setting: to `CCc1nnc2cc(S(=O)(=O)Nc3ccon3)ccc2c1-c1cc(Cl)c(-c2cccc(F)c2)cc1OC` (atropisomer, axis not shown; (M)) [Example 443, (M)-4-(2-chloro-3′-fluoro-5-methoxy-[1,1′-biphenyl]-4-yl)-3-ethyl-N-(isoxazol-3-yl)cinnoline-7-sulfonamide] belongs 87 nM. The same measure, in the same setting: for `COc1cc(-c2cccc(C(F)(F)F)c2)c(F)cc1-c1c2ccc(S(=O)(=O)Nc3ccon3)cc2cc(=O)n1C` (atropisomer, axis not shown; (M)) [Example 552, (M)-1-(2-fluoro-5-methoxy-3′-(trifluoromethyl)-4-biphenylyl)-N-3-isoxazolyl-2-methyl-3-oxo-2,3-dihydro-6-isoquinolinesulfonamide] the value was 1250 nM; for `COc1cc(-c2cccc(F)c2)c(Cl)cc1-c1c(C)ncc2cc(S(=O)(=O)Nc3ccon3)ccc12` (atropisomer, axis not shown; (P)) [Example 318, (P)-4-(2-chloro-3′-fluoro-5-methoxy-4-biphenylyl)-N-3-isoxazolyl-3-methyl-7-isoquinolinesulfonamide], 1390 nM.

As to `COc1cc(-c2cccc(F)c2)c(Cl)cc1-c1c(C)cnc2cc(S(=O)(=O)Nc3ccon3)ccc12` (atropisomer, axis not shown; (P)) [Example 331, (P)-4-(2-chloro-3′-fluoro-5-methoxy-[1,1′-biphenyl]-4-yl)-N-(isoxazol-3-yl)-3-methylquinoline-7-sulfonamide], the IC50 was 10500 nM.
